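The compound was tested at five concentrations on cells cultured in 96-well plates, with a 48-hour exposure period. Here, GI50 denotes the concentration required for 50% inhibition of growth.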 Activity calls are given as the source filed them. Cut-off read from the data, not from the text of the source: active = GI50 up to about 1.1 µM and inactive = higher.
Assays:
Test in all cases: NCI-60 cell line screen, 48 h
HCT-116 = test system: HCT-116
NCI-H522 = test system: NCI-H522
EKVX = test system: EKVX
KM12 = test system: KM12
RXF 393 = test system: RXF 393
MDA-MB-435 = test system: MDA-MB-435
MDA-N = test system: MDA-N
HOP-92 = test system: HOP-92
ACHN = test system: ACHN
PC-3 = test system: PC-3
U-251 = test system: U-251
SN12C = test system: SN12C
OVCAR-3 = test system: OVCAR-3
NCI/ADR-RES = test system: NCI/ADR-RES
UO-31 = test system: UO-31
UACC-257 = test system: UACC-257
UACC-62 = test system: UACC-62
SNB-75 = test system: SNB-75
SK-OV-3 = test system: SK-OV-3
SK-MEL-2 = test system: SK-MEL-2

Measured: GI50

c1csc(-c2cc(-c3ccsc3)c(-c3cccs3)s2)c1
inactive: HCT-116 29.8 µM | NCI-H522 61.7 µM | EKVX 16 µM | KM12 31.8 µM | RXF 393 49.8 µM | MDA-MB-435 39.4 µM | MDA-N 32 µM | HOP-92 32.2 µM | ACHN 99.5 µM | PC-3 > 100 µM | U-251 81.3 µM | SN12C > 100 µM | OVCAR-3 > 100 µM | NCI/ADR-RES > 100 µM | UO-31 76.2 µM | UACC-257 56.2 µM | UACC-62 48.4 µM | SNB-75 17.9 µM

CC1(C)OC(=S)N(c2ccccc2)C12C=Cc1cc3ccccc3cc1O2 (stereo not drawn)
inactive: HCT-116 > 100 µM | EKVX > 100 µM | KM12 > 100 µM | RXF 393 > 100 µM | MDA-MB-435 > 100 µM | SK-OV-3 > 100 µM | MDA-N > 100 µM | HOP-92 > 100 µM | ACHN > 100 µM | SK-MEL-2 > 100 µM | PC-3 44.2 µM | U-251 > 100 µM | SN12C > 100 µM | OVCAR-3 > 100 µM | NCI/ADR-RES > 100 µM | UO-31 > 100 µM | UACC-257 > 100 µM | UACC-62 > 100 µM | SNB-75 > 100 µM

Cc1csc(NC23CC4CC(CC(C4)C2)C3)[n+]1C(P(=O)([O-])O)P(=O)(O)O (stereo not drawn)
inactive: HCT-116 > 100 µM | NCI-H522 > 100 µM | EKVX > 100 µM | KM12 > 100 µM | RXF 393 > 100 µM | MDA-MB-435 > 100 µM | SK-OV-3 > 100 µM | MDA-N > 100 µM | HOP-92 > 100 µM | ACHN > 100 µM | PC-3 > 100 µM | U-251 > 100 µM | OVCAR-3 > 100 µM | NCI/ADR-RES > 100 µM | UO-31 > 100 µM | UACC-257 > 100 µM | UACC-62 > 100 µM | SNB-75 > 100 µM

O=C1CSC(c2cc3cc(Br)ccc3nc2Cl)N1c1ccc(F)c(Cl)c1 (stereo not drawn)
inactive: HCT-116 > 50 µM | NCI-H522 33.1 µM | EKVX 25.1 µM | KM12 35.6 µM | RXF 393 > 50 µM | MDA-MB-435 25.1 µM | SK-OV-3 > 50 µM | MDA-N 48.3 µM | HOP-92 > 50 µM | ACHN > 50 µM | SK-MEL-2 > 50 µM | PC-3 29.9 µM | SN12C > 50 µM | OVCAR-3 > 50 µM | NCI/ADR-RES > 50 µM | UO-31 > 50 µM | UACC-257 > 50 µM | UACC-62 > 50 µM | SNB-75 > 50 µM

Clc1ccc(-c2cc(-c3cc4cc(Br)ccc4nc3Cl)on2)cc1
inactive: HCT-116 12.2 µM | NCI-H522 10.2 µM | EKVX 4.93 µM | KM12 15.5 µM | RXF 393 15.4 µM | MDA-MB-435 11 µM | SK-OV-3 18.9 µM | MDA-N 11.8 µM | HOP-92 27.9 µM | ACHN 13.8 µM | SK-MEL-2 9.71 µM | PC-3 16.5 µM | SN12C 16.1 µM | OVCAR-3 10 µM | NCI/ADR-RES 14.9 µM | UO-31 17.3 µM | UACC-257 13 µM | UACC-62 14.5 µM | SNB-75 25.1 µM

Reference: ChEMBL document CHEMBL1201862, “PubChem BioAssay data set” (2004)
